Assay results taken from patent publication US20100317047A1, “Biomarkers of Hemorrhagic Shock” (THE GENERAL HOSPITAL CORPORATION, priority 2009, published 2010).

Assays:
[1] = system: claudin-3; experiment: Western blot of intestinal claudin-3 protein in hemorrhagic shock model; format: in vivo; conditions: rat intestinal lysate, 1, 6 and 24 hours after VPA treatment, vs HS 1 hour; n=3
Description: (§1) An animal model of HS was used. Male Wistar-Kyoto rats (254.12±2.71 grams, Harlan, Indianapolis, Ind.) were used in the lethal model of hemorrhagic shock (Shults et al., J. Trauma. 2008; 64(3): 629-638). Each animal's estimated blood volume was calculated using the formula: [estimated blood volume (mL)=weight (g)×0.06 (mL/g)+0.77]. About 1.3 mL of blood was manually drawn at the beginning and end of hemorrhage for analysis (included in the total hemorrhage calculation). The animals were hemorrhaged (40% of their calculated total blood volume) via a femoral arterial catheter over 10 minutes, followed by a 20% blood volume venous bleed over the next 50 minutes. Bleeding was performed using Kent Scientific adjustable pumps (Kent Scientific Corporation, NJ). VPA (300 mg/kg) was administered via a femoral vein catheter after completion of hemorrhage. Blood pressure was monitored continuously during the experiment. […]
Claudin-3 is a TJ protein that has important roles in establishing epithelial and endothelial barriers. To find out whether HS and VPA treatment affect claudin-3 protein in TJ of epithelial cells, protein expression was analyzed in intestinal tissue obtained from sham, HS 1 hour (1 hour after hemorrhagic shock), and VPA-treated animals (1 hour, 6 hours, and 24 hours after treatment). […]

[2] = system: hemorrhagic shock; experiment: Survival in lethal model of hemorrhagic shock; format: in vivo, rat; conditions: rats, 60% blood volume hemorrhage, VPA 300 mg/kg; none of the untreated animals survived
Description: as §1, with “experiment. The mean arterial pressure (MAP) in animals that were subjected to hemorrhage dropped sharply after bleeding to approximately 20 mm Hg. Blood was drawn at baseline (BL, before hemorrhage), hemorrhagic shock (HS), and 24 hours after VPA treatment from individual rats for protein biomarker screening and identification.” for “experiment.”

[3] = system: claudin-3 mRNA; experiment: RT-PCR of intestinal claudin-3 mRNA in hemorrhagic shock model; format: in vivo; conditions: rat intestine, 1, 6 and 24 hours; β-actin internal control, n=3
Description: To assess whether gene expression of claudin-3 responds to HS and VPA treatment, the mRNA expression of rat intestines among the groups of sham, HS and VPA treatment was compared at 1, 6 and 24 hours using RT-PCR methods.

[4] = system: hemorrhagic shock; conditions: rats; Shults et al. 2008, Li et al. 2008, WO 2007117272; cited from earlier work
[5] = system: claudin-3; experiment: iTRAQ quantification of serum claudin-3 peptide in hemorrhagic shock model; format: in vivo; conditions: rat serum, 24 hours post-VPA treatment (300 mg/kg) vs post-hemorrhagic shock; BL to HS ratio 0.323
Description: as §1, with “experiment. The mean arterial pressure (MAP) in animals that were subjected to hemorrhage dropped sharply after bleeding to approximately 20 mm Hg.” for “experiment.”
Immunodepletion of serum abundant proteins was performed as follows. […] Column performance was monitored by sodium dodecyl sulphate-polyacrylamide gel electrophoresis (SDS-PAGE) followed by Coomassie Blue staining (BioBlue, BioRad). […]

[6] = system: 22.7 kDa protein; experiment: SELDI-TOF MS serum protein profiling in lethal hemorrhagic shock model; format: in vivo; conditions: rat serum, 24 hours after VPA 300 mg/kg via femoral vein after hemorrhage; p<0.05 vs HS, n=5
Description: as §1, with “experiment. The mean arterial pressure (MAP) in animals that were subjected to hemorrhage dropped sharply after bleeding to approximately 20 mm Hg.” for “experiment.”
ProteinChip profiling was performed on CM10 ProteinChip arrays (Ciphergen Biosystems, Fremont Calif.), as recommended by the manufacturer. […] The arrays were then inserted into a ProteinChip (Enterprise edition) TOF-MS and read at an optimized laser setting of 2000 nJ-5000 nJ. […]

[7] = system: claudin-3; experiment: Western blot of serum claudin-3 in hemorrhagic shock model; format: in vivo; conditions: rat serum, 1 hour following VPA treatment; HS 1 hour group showed ~23 kDa and ~11 kDa bands
Description: To assess whether claudin-3 is a potential biomarker, independent serum samples were taken of sham (no hemorrhage and no treatment), HS 1 hour (1 hour following hemorrhagic shock), and VPA 1 hour (1 hour following VPA treatment) from individual rats and the level of the candidate biomarker was determined by Western blot with anti-claudin-3 antibody. […]

For `CCCC(CCC)C(=O)O` [VPA, Valproic acid], the “intestinal claudin-3 protein level by Western blot” value [1] was “significantly attenuated the HS-induced reduction of claudin-3”, the “survival after hemorrhagic shock” value [2] was “survived” and the “intestinal claudin-3 mRNA expression by RT-PCR” value [3] was “did not significantly change claudin-3 mRNA expression”. For the same molecule, the “survival after lethal HS (literature)” value [4] was “improves survival after lethal HS in rats”, the “ratio of VPA to HS, claudin-3 peptide iTRAQ tag intensity in serum” value [5] was 0.425 and the “serum level of 22.7 kDa protein (SELDI-TOF MS peak intensity) vs HS” value [6] was “down-regulated in the VPA group sharply”. The “serum claudin-3 by Western blot” value [7] was “no claudin-3 was detected”.
